Reference: patent publication US20060142249A1, “Ophthalmic use” (priority 2002, published 2006)

Tests used:
GABA-B = GABA-B (Homo sapiens, UniProt Q9UBS5); assay: Receptor profile, GABA-B; format: biochemical
GABA-C = assay: Receptor profile, GABA-C; format: biochemical

Chain of GABA-B (Q9UBS5 15-961 limits assumed): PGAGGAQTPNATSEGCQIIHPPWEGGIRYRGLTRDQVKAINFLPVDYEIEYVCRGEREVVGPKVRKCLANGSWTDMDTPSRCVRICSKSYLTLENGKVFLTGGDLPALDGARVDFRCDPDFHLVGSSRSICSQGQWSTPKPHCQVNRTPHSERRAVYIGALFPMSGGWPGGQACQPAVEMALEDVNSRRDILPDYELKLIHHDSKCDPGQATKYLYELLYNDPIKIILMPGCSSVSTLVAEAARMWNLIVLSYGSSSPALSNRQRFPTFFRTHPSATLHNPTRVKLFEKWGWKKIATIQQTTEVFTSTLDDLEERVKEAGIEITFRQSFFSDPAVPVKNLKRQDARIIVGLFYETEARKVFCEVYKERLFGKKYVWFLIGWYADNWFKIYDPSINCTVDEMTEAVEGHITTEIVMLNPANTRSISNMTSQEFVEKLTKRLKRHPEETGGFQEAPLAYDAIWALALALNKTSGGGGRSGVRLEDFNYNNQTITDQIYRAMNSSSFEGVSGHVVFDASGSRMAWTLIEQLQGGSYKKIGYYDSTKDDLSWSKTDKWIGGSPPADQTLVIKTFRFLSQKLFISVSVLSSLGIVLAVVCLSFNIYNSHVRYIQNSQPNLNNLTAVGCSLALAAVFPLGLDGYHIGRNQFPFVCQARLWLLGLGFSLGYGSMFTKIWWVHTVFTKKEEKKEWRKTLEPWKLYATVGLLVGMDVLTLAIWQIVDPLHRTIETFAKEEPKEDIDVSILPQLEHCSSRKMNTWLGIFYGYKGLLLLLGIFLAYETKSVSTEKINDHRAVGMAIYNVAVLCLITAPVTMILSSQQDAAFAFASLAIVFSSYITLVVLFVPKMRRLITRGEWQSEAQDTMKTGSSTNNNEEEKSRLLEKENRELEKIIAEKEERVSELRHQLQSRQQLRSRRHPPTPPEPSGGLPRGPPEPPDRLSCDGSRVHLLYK
Chain of GABA-B (O75899 42-941 partner): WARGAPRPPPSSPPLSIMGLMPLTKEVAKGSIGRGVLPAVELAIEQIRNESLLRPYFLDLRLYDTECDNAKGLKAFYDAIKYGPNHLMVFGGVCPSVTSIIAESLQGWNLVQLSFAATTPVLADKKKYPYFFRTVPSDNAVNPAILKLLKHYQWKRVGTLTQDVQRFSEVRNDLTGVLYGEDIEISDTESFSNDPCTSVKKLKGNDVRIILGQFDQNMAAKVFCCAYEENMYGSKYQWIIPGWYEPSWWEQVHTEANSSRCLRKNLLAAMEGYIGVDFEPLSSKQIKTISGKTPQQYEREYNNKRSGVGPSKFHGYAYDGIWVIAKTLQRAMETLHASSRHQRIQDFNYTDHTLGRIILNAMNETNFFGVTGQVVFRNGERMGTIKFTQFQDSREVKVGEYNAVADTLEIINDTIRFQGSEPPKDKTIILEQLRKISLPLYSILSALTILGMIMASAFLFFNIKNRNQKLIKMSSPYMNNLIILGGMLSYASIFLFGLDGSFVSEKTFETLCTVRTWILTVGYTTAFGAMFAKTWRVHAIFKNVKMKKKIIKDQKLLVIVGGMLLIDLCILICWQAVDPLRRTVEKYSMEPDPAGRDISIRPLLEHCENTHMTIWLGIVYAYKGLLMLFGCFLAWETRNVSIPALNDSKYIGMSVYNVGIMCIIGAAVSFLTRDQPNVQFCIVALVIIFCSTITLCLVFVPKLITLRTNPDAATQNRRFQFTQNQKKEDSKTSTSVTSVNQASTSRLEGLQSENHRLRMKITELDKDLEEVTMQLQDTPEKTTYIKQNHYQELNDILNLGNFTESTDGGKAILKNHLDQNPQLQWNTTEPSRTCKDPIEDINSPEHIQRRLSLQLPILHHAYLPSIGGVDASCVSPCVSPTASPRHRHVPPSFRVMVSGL

## CP(=O)(O)C1=CCNCC1 [TPMPA]
GABA-B
  GABA-B mode of action (agonist/antagonist): agonist
GABA-C
  GABA-C mode of action (agonist/antagonist): antagonist
